Reference: ChEMBL document CHEMBL3714749, “Quinoxaline derivatives as gpr6 modulators” (2014)

The compounds below were run against G-protein coupled receptor 6 (Homo sapiens, UniProt P46095) (assay: Activity at GPR6 (unknown origin) expressed in CHOK1 cells assessed as inhibition of constitutive cAMP activity incubated for 45 mins by HTRF based cAMP detection assay).
Type: functional, cell-based, CHO-K1

Chain of G-protein coupled receptor 6 (P46095 whole entry): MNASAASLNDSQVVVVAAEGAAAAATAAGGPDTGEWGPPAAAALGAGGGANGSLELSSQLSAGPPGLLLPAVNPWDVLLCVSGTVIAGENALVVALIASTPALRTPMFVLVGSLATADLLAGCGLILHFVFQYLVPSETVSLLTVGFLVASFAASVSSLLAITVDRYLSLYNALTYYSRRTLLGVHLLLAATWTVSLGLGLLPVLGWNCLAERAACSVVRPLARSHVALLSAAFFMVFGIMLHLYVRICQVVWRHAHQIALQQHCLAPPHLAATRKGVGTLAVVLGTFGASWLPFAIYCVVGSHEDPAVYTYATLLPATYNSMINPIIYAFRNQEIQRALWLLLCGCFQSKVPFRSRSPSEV

IC50 [nM]	SMILES
90	N#Cc1ccc2nc(NC3CC3)c(N3CCC(Oc4ccc(F)cc4F)CC3)nc2c1
1570	C[C@@H](CO)Nc1nc2ccccc2nc1N1CCN(Cc2cc(Cl)ccc2Cl)CC1
4810	O=C(c1csc(Cl)c1)C1CCN(c2nc3cnccc3nc2NC2CC2)CC1
79600	O=C(c1ccc(Cl)c(Cl)c1)N1CCN(c2nc3ccccc3nc2NC2CC2)CC1
5	CN(C)C(=O)c1cc2nc(NC3CC3)c(N3CCC(Oc4ccc(F)cc4F)CC3)nc2cn1
4340	N#Cc1ccc2nc(NC3CC3)c(N3CCN(S(=O)(=O)c4ccccc4C#N)CC3)nc2c1
260	Fc1ccc(CN2CCN(c3nc4cnncc4nc3NC3CC3)CC2)c(F)c1
88	COc1ccc(CN2CCN(c3nc4c(C#N)nccc4nc3NC3CC3)CC2)c(F)c1
11	Cc1cc2nc(NC3CC3)c(N3CCC([C@H](F)c4cc(F)ccc4F)CC3)nc2cn1
250	COCCNc1nc2ccc(C#N)cc2nc1N1CCC(Cc2ccc(F)cc2F)CC1
97	N#Cc1ccc2nc(NC3CC(=O)C3)c(N3CCN(Cc4cc(Cl)ccc4Cl)CC3)nc2c1
420	N#Cc1ccc2nc(NC3CC3)c(N3CCN(S(=O)(=O)c4ccc(Br)s4)CC3)nc2c1
5780	Cc1ccccc1C(=O)C1CCN(c2nc3cnccc3nc2NC2CC2)CC1
93	Cc1cc2nc(NC3CC3)c(N3CCC(S(=O)(=O)c4ccc(F)cc4)CC3)nc2cn1
15400	N#Cc1cccc(OC2CCN(c3nc4cnccc4nc3NC3CC3)CC2)c1
1360	N#Cc1ccc2nc(NC3CC3)c(N3CCN(S(=O)(=O)c4cc(C(F)(F)F)ccc4Cl)CC3)nc2c1
26	O=C(c1cc2nc(NC3CC3)c(N3CCC([C@@H](F)c4ccc(F)cc4F)CC3)nc2cn1)N1CCC1F (some centres not stated)
29	Fc1ccc(C(F)C2CCN(c3nc4cnc(Br)cc4nc3NC3CC3)CC2)c(F)c1 (configuration not stated)
1510	Clc1ccccc1OC1CCN(c2nc3cnccc3nc2NC2CC2)CC1
340	COCCNc1nc2ccc(C#N)cc2nc1N1CCC(C(F)c2ccc(F)cc2F)CC1 (configuration not stated)
450	Cc1cc(S(=O)(=O)N2CCN(c3nc4cc(C#N)ccc4nc3NC3CC3)CC2)c(C)cc1Cl
67	O=C(c1ccccc1Cl)C1CCN(c2nc3cnccc3nc2NC2CC2)CC1
69	N#Cc1ccc(F)c(C(=O)C2CCN(c3nc4cnccc4nc3NC3CC3)CC2)c1
1640	Clc1ccc(Cl)c(CN2CCN(c3nc4cccc(Br)c4nc3NC3CC3)CC2)c1
3360	COc1ccc2nc(N3CCN(Cc4cc(Cl)ccc4Cl)CC3)c(NC3CC3)nc2c1

IC50 [nM]	SMILES
20	CC(C)Nc1nc2cnccc2nc1N1CCC(Oc2ccc(F)cc2F)CC1
18	Cc1nccc2nc(NC3CC3)c(N3CCC(Oc4ccc(F)cc4F)CC3)nc12
1100	Fc1ccc(F)c(OC2CCN(c3nc4cnccc4nc3NC3CC3)CC2)c1
24	Fc1ccc([C@@H](F)C2CCN(c3nc4cnccc4nc3NC3CC3)CC2)c(F)c1
16	CC(C)Nc1nc2cc(C(=O)N(C)C)ncc2nc1N1CCC(C(=O)c2cc(F)cc(F)c2)CC1
98	CC(C)Nc1nc2ccc(C#N)cc2nc1N1CCC(C(F)c2cc(F)ccc2F)CC1 (configuration not stated)
770	Cc1cc2nc(NC3CC3)c(N3CCC(Cn4cc(Cl)ccc4=O)CC3)nc2cn1
18	Fc1ccc(OC2CCN(c3nc4cnncc4nc3NC3CC3)CC2)c(F)c1
29	COc1cc2nc(NC3CC3)c(N3CCC(Cc4ccc(F)cc4F)CC3)nc2cn1
49	CC(C)Nc1nc2ccc(C#N)cc2nc1N1CCC([C@@H](F)c2ccc(F)cc2F)CC1
14	CSc1ccc(OC2CCN(c3nc4cnncc4nc3NC3CC3)CC2)c(F)c1
72	CC(C)Nc1nc2cnncc2nc1N1CCC(Oc2ccc(C#N)cc2F)CC1
530	CS(=O)(=O)c1ccc(C(=O)N2CCN(c3nc4ccccc4nc3NC3CC3)CC2)cc1
140	Fc1ccc(CC2CCN(c3nc4cc(F)c(F)cc4nc3NC3CC3)CC2)c(F)c1
89	N#Cc1ccc(Cl)c(C(=O)C2CCN(c3nc4cnc(Cl)cc4nc3NC3CC3)CC2)c1
1570	CN(C)C(=O)c1cc2nc(NC3CC3)c(N3CCN(C(=O)c4cc(F)ccc4Cl)CC3)nc2cn1
1000	COc1cccc(OC2CCN(c3nc4cnncc4nc3NC(C)C)CC2)c1
670	COCCNc1nc2ccncc2nc1N1CCC(Oc2ccc(F)cc2F)CC1
15400	N#Cc1ccc2nc(Nc3ccon3)c(N3CCN(C(=O)c4ccc(Cl)cc4)CC3)nc2c1
310	Clc1ccc(OC2CCN(c3nc4cnccc4nc3NC3CC3)CC2)cc1
29	CC(C)Nc1nc2ccncc2nc1N1CCC(C(F)c2ccc(F)cc2F)CC1 (configuration not stated)
4900	O=C(c1c(F)cccc1Cl)C1CCN(c2nc3cnccc3nc2NC2CC2)CC1
1940	N#Cc1ccc(OC2CCN(c3nc4cnccc4nc3NC3CC3)CC2)cc1
29	Fc1ccc(Cl)cc1CN1CCN(c2nc3cnccc3nc2NC2CC2)CC1
930	N#Cc1ccc2nc(NC3CC3)c(N3CCC(Cn4cc(Cl)ccc4=O)CC3)nc2c1

IC50 [nM]	SMILES
2880	N#Cc1ccccc1OC1CCN(c2nc3cnccc3nc2NC2CC2)CC1
3330	CC(C)OCCNc1nc2ccccc2nc1N1CCN(Cc2cc(Cl)ccc2Cl)CC1
276	CC(C)Nc1cc(Cl)cc(C(=O)C2CCN(c3nc4ccc(C#N)cc4nc3NC(C)C)CC2)c1
32	Clc1ccc(Cl)c(CN2CCN(c3nc4cnccc4nc3NC3CC3)CC2)c1
1300	N#Cc1ccc2nc(NC3CC3)c(N3CCN(S(=O)(=O)c4ccc(C(F)(F)F)cc4Cl)CC3)nc2c1
300	N#Cc1ccc2nc(NC3CCC3)c(N3CCN(C(=O)c4ccc(Cl)cc4)CC3)nc2c1
6	O=C(c1nccc2nc(NC3CC3)c(N3CCC([C@H](F)c4ccc(F)cc4F)CC3)nc12)N1CCOCC1
66	N#Cc1nccc2nc(NC3CC3)c(N3CCN(Cc4ccc(F)cc4F)CC3)nc12
1740	CC(=O)c1ccc(OC2CCN(c3nc4cnccc4nc3NC3CC3)CC2)cc1
2180	O=C(c1c(F)cccc1F)C1CCN(c2nc3cnccc3nc2NC2CC2)CC1
30	COCCNc1nc2ccncc2nc1N1CCC(Cc2ccc(F)cc2F)CC1
380	Cc1ccc(C)c(CN2CCN(c3nc4cnccc4nc3NC3CC3)CC2)c1
4590	N#Cc1ccc2nc(NC3CC3)c(N3CCN(S(=O)(=O)c4ccccc4F)CC3)nc2c1
8	CC(C)Nc1nc2cnncc2nc1N1CCC(Oc2ccc(OCF)cc2F)CC1
4070	Clc1ccc(Cl)c(CN2CCN(c3nc4ccccc4nc3NC3CCOCC3)CC2)c1
29	N#Cc1ccc2nc(N3CCC(C(F)c4ccc(F)cc4F)CC3)c(NC3CC3)nc2c1 (configuration not stated)
16	Fc1ccc(C(F)(F)C2CCN(c3nc4cnccc4nc3NC3CC3)CC2)c(F)c1
2340	Clc1ccc(Cl)c(CN2CCN(c3nc4ccccc4nc3Nc3cnccn3)CC2)c1
400	Fc1cc(F)c(CN2CCN(c3nc4ccncc4nc3Nc3cccnc3)CC2)cc1F
5620	N#Cc1ccc2nc(NC3CC3)c(N3CCN(S(=O)(=O)c4cccc(Cl)c4)CC3)nc2c1
15	COc1ccc(CC2CCN(c3nc4cnncc4nc3NC(C)C)CC2)c(F)c1
30	CC[C@@H](C)Nc1nc2cnncc2nc1N1CCC(Oc2ccc(OC)cc2F)CC1
960	N#Cc1ccc2nc(NCCF)c(N3CCN(C(=O)c4ccc(Cl)cc4)CC3)nc2c1
270	FC(F)Oc1ccc(Cl)cc1CN1CCN(c2nc3cnccc3nc2NC2CC2)CC1
11000	O=C(c1cccc(Cl)c1)C1CCN(c2nc3cnccc3nc2NC2CC2)CC1

IC50 [nM]	SMILES
17	N#Cc1cc2nc(NC3CC3)c(N3CCC([C@@H](F)c4ccc(F)cc4F)CC3)nc2cn1
340	N#Cc1ccc2nc(N3CCN(C(=O)c4ccc(Cl)cc4)CC3)c(NC3CC3)nc2c1
39	CCNc1nc2cnccc2nc1N1CCC(Oc2ccc(OC)cc2F)CC1
105000	Cc1cc(CN2CCN(c3nc4ccccc4nc3NC3CC3)CC2)no1
2650	O=C(c1ccc(C(F)F)cc1)N1CCN(c2nc3cnccc3nc2NC2CC2)CC1
1490	N#Cc1cccc2nc(N3CCN(Cc4cc(Cl)ccc4Cl)CC3)c(NC3CC3)nc12
1430	Fc1ccc(OC2CCN(c3nc4cc(Br)ccc4nc3NC3CC3)CC2)c(F)c1
9	Cc1nccc2nc(NC3CC3)c(N3CCC(C(F)c4ccc(F)cc4F)CC3)nc12 (configuration not stated)
1920	COc1ccccc1C(=O)C1CCN(c2nc3cnccc3nc2NC2CC2)CC1
146	CSc1ccc(OC2CCN(c3nc4cnccc4nc3NC3CC3)CC2)cc1
1850	N#Cc1ccc2nc(NC3CC3)c(N3CCN(S(=O)(=O)c4ccccc4Br)CC3)nc2c1
30	Fc1cc(Cl)ccc1OC1CCN(c2nc3cnncc3nc2NC2CC2)CC1
31	Fc1ccc(CC2CCN(c3nc4cnc(Cl)cc4nc3NC3CC3)CC2)c(F)c1
390	N#Cc1ccc2nc(NCCC(F)(F)F)c(N3CCN(Cc4ccc(F)cc4F)CC3)nc2c1
65	CN(C)C(=O)c1cc2nc(NCC(F)F)c(N3CCC(Oc4ccc(F)cc4F)CC3)nc2cn1
22	Fc1ccc([C@H](F)C2CCN(c3nc4cnncc4nc3NC3CC3)CC2)c(F)c1
140	Fc1ccc(F)c(CN2CCN(c3nc4ccncc4nc3NC3CC3)CC2)c1
6040	CC(O)c1ccc(OC2CCN(c3nc4cnccc4nc3NC3CC3)CC2)cc1 (configuration not stated)
20	COc1ccc(OC2CCN(c3nc4cnncc4nc3NC3CC3)CC2)c(F)c1
478	CSc1ccc(F)c(C(=O)C2CCN(c3nc4cnccc4nc3NC3CC3)CC2)c1
27	Fc1ccc(CC2CCN(c3nc4ccncc4nc3NC3CC3)CC2)c(F)c1
28	CC(C)Nc1nc2cc(C#N)ncc2nc1N1CCC(C(=O)c2cc(F)cc(F)c2)CC1
78	Fc1ccc(CC2CCN(c3nc4ccncc4nc3NCC(F)F)CC2)c(F)c1
380	N#Cc1ccc2nc(NC3CC3)c(N3CCN(Cc4cc(F)ccc4F)CC3)nc2c1
2740	O=C(c1cccnc1Br)C1CCN(c2nc3cnccc3nc2NC2CC2)CC1

SMILES	IC50 [nM]
Cc1cc2nc(NC3CC3)c(N3CCC([C@@H](F)c4ccc(F)cc4F)CC3)nc2cn1	6
Cc1cc2nc(NC3CC3)c(N3CCC(C(F)c4ccc(F)cc4F)CC3)nc2cn1 (configuration not stated)	7
